Measurements as given in patent publication US20230158157A1, “POTENT AND SELECTIVE DEGRADERS OF ALK” (DANA-FARBER CANCER INSTITUTE, INC., priority 2020, published 2023).
Where two headings read alike, the source gives them in different places.

Legend:
Format in all cases: cell-based
[1] = target: T1, FAK (Homo sapiens, UniProt Q05397); assay: FAK degradation (H3122 cells); conditions: for Dmax: NCI-H3122, Table 3; for DC50: Table 3
T1 construct: FAK Degradation; endogenous in cells; host or cells: H3122
T1 sequence (Q05397 whole entry): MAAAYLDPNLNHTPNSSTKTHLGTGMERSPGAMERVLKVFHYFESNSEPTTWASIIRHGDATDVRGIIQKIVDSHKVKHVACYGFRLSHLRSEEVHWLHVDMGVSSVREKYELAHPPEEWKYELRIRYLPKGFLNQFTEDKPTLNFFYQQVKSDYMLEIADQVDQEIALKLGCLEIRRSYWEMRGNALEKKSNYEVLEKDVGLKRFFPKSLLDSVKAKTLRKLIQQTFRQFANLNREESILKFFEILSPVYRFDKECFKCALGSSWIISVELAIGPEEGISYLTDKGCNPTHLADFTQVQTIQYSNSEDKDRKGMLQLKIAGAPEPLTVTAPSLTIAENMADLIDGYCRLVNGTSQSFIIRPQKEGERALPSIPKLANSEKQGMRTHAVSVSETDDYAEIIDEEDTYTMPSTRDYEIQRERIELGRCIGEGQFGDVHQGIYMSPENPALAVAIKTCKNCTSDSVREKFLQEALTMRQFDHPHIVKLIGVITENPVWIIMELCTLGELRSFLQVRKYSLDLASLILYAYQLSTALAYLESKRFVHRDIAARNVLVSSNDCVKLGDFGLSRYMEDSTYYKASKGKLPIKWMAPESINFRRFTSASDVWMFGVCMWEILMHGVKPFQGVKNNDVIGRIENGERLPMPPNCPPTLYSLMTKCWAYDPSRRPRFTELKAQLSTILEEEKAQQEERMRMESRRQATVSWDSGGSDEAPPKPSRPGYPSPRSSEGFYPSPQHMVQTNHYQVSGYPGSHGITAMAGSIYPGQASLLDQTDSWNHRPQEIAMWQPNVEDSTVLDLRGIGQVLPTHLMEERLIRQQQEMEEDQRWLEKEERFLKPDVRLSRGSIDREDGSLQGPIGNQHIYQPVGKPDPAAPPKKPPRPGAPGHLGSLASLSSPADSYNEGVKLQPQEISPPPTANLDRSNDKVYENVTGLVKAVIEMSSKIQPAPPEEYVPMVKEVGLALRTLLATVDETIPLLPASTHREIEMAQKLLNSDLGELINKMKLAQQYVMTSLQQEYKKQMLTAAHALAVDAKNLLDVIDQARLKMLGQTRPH

[2] = target: T2, EML4-ALK (Homo sapiens, UniProt Q9UM73); assay: EML4-ALK HiBit degradation assay in CRISPR-tagged H3122 cells (Nano-Glo HiBit Lytic Detection)
T2 construct: endogenous in cells; host or cells: H3122 (NSCLC), single-cell clone after CRISPR knock-in of HiBit; the other entry of the earlier key: EML4 (Q9HC35, Echinoderm microtubule-associated protein-like 4)
T2 sequence (Q9UM73 with tags, fused parts or gaps): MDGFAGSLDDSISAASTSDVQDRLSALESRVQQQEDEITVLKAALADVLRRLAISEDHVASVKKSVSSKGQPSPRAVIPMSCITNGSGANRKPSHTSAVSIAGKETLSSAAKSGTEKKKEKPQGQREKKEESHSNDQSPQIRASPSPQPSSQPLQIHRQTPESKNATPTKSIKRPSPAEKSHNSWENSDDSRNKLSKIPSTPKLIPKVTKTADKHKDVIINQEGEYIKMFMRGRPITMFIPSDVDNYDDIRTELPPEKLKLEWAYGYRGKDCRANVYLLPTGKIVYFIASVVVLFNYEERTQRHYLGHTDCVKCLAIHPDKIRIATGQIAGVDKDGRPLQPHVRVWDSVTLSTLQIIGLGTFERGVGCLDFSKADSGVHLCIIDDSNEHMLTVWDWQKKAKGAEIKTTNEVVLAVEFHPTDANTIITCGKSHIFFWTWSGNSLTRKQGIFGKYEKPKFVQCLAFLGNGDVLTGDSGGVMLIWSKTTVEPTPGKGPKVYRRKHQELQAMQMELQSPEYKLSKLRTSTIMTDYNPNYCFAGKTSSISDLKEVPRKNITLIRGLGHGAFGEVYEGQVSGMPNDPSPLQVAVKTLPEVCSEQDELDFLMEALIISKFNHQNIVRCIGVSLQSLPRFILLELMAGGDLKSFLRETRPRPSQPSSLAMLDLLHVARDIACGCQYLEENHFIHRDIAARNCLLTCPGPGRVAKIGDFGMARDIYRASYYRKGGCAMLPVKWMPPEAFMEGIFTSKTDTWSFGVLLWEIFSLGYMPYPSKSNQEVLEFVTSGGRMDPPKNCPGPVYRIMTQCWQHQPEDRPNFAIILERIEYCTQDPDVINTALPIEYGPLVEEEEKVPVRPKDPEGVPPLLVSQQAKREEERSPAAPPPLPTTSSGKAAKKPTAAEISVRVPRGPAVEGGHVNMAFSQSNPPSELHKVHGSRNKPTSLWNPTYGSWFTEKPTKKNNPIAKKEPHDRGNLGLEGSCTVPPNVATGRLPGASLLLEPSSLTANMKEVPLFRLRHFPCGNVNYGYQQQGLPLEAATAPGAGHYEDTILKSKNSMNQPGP
Method: (§1) NSCLC cell line H3122 was subjected to CRISPR to express EML4-ALK with HiBit-tag on its c-terminal. Single-cell clone was selected and expanded for the following assays that monitor endogenous EML4-ALK level in high throughput manner. Cells were seeded in 384-well white Tissue-culture plates at 3000 cells/well for 8 hours. […] HiBit signal was assessed using Nano-Glo® HiBit Lytic Detection System (Promega™). Degrader-treated was normalized by DMSO-treated controls and DC50 and Dmax were generated by GraphPad Prism® 8.0.
as §1, with “its c-terminus. A single-cell” for “its c-terminal. Single-cell”, “Degrader-treated cells were” for “Degrader-treated was”
as §1, with “its C-terminus. A single-cell” for “its c-terminal. Single-cell”, “Degrader-treated cells were” for “Degrader-treated was”

[3] = tested on: H3122 cells; assay: CTG; conditions: read-out: CTG IC50
[4] = NCI-H3122, Table 1, first Dmax column, H3122 EML4-ALK-HiBit, 16 hours, read-out: Degradation Dmax
[5] = NCI-H3122, Table 1, second Dmax column, H3122 EML4-ALK-HiBit, 16 hours, read-out: Degradation Dmax
[6] = Table 1, first DC50 column, H3122 EML4-ALK-HiBit, 16 hours, read-out: Degradation DC50
[7] = Table 1, second DC50 column, H3122 EML4-ALK-HiBit, 16 hours, read-out: Degradation DC50
[8] = Table 1, average DC50, read-out: Degradation Avg. DC50
[9] = Homo sapiens, NCI-H3122, Table 1
[10] = NCI-H3122, Table 1, average Dmax, read-out: Degradation Avg. Dmax
[11] = NCI-H3122, Table 2, first Dmax column, H3122 EML4-ALK-HiBit, 16 hours, read-out: Degradation Dmax
[12] = NCI-H3122, Table 2, second Dmax column, H3122 EML4-ALK-HiBit, 16 hours, read-out: Degradation Dmax
[13] = NCI-H3122, Table 2, average Dmax, read-out: Degradation Avg. Dmax
[14] = Table 2, first DC50 column, H3122 EML4-ALK-HiBit, 16 hours, read-out: Degradation DC50
[15] = Table 2, second DC50 column, H3122 EML4-ALK-HiBit, 16 hours, read-out: Degradation DC50
[16] = Table 2, average DC50, read-out: Degradation Avg. DC50
[17] = Homo sapiens, NCI-H3122, Table 2

Row | Structure (SMILES) | Dmax [2, 4] [%] | DC50 [2, 6] [nM] | DC50 [2, 8] [nM] | IC50 [3, 9] [nM] | Dmax [2, 10] [%] | DC50 [2, 14] [nM] | DC50 [2, 16] [nM] | further results
1 | COc1cc(C2CCN(CCCCCC#Cc3cccc4c3CN(C3CCC(=O)NC3=O)C4=O)CC2)c(C)cc1Nc1ncc(Cl)c(Nc2ccccc2S(=O)(=O)C(C)C)n1 (stereo not shown) [compound 94, 3-(4-(7-(4-(4-((5-chloro-4-((2-(isopropylsulfonyl)phenyl)amino)pyrimidin-2-yl)amino)-5-methoxy-2-methylphenyl)piperidin-1-yl)hept-1-yn-1-yl)-1-oxoisoindolin-2-yl)piperidine-2,6-dione] | – | – | – | – | – | – | – | Dmax [1]: 86%
2 | COc1cc(CCN(C)CCCCCOc2cc(-c3scnc3C)ccc2[C@H](C)NC(=O)[C@@H]2C[C@@H](O)CN2C(=O)[C@@H](NC(C)=O)C(C)(C)C)c(C)cc1Nc1ncc(Cl)c(Nc2ccccc2S(=O)(=O)C(C)C)n1 [Compound 54] | 68.4 | 67 | 62 | 73.6 | – | – | – | Dmax [2, 5]: 68.2%; DC50 [2, 7]: 57 nM
3 | COc1cc(C2CCN(CC#Cc3ccc4c(c3)CN(C3CCC(=O)NC3=O)C4=O)CC2)c(C)cc1Nc1ncc(Cl)c(Nc2ccccc2S(=O)(=O)C(C)C)n1 (stereo not shown) [compound 97, 3-(5-(3-(4-(4-((5-chloro-4-((2-(isopropylsulfonyl)phenyl)amino)pyrimidin-2-yl)amino)-5-methoxy-2-methylphenyl)piperidin-1-yl)prop-1-yn-1-yl)-1-oxoisoindolin-2-yl)piperidine-2,6-dione] | – | – | – | – | – | – | – | Dmax [1]: 80%; DC50 [1]: 8 nM
4 | COc1cc(CCN(C)C(=O)CCOCCOCCOCC#Cc2cccc3c2C(=O)N(C2CCC(=O)NC2=O)C3=O)c(C)cc1Nc1ncc(Cl)c(Nc2ccccc2S(=O)(=O)C(C)C)n1 (stereo not shown) [compound 11, N-(4-((5-chloro-4-((2-(isopropylsulfonyl)phenyl)amino)pyrimidin-2-yl)amino)-5-methoxy-2-methylphenethyl)-3-(2-(2-((3-(2-(2,6-dioxopiperidin-3-yl)-1,3-dioxoisoindolin-4-yl)prop-2-yn-1-yl)oxy)ethoxy)ethoxy)-N-methylpropanamide] | 53.3 | 502 | 302 | 219 | 53.3 | – | – | –
5 | COc1cc(CCN(C)C(=O)CCOCCC(=O)N[C@H](C(=O)N2C[C@H](O)C[C@H]2C(=O)N[C@@H](C)c2ccc(-c3scnc3C)cc2)C(C)(C)C)c(C)cc1Nc1ncc(Cl)c(Nc2ccccc2P(C)(C)=O)n1 [compound 71, (2S,4R)-1-((S)-2-(3-(3-((4-((5-chloro-4-((2-(dimethylphosphoryl)phenyl)amino)pyrimidin-2-yl)amino)-5-methoxy-2-methylphenethyl)(methyl)amino)-3-oxopropoxy)propanamido)-3,3-dimethylbutanoyl)-4-hydroxy-N-((S)-1-(4-(4-methylthiazol-5-yl)phenyl)ethyl)pyrrolidine-2-carboxamide] | – | – | – | – | – | 543 | 350 | Dmax [2, 11]: 50.9%; Dmax [2, 12]: 43.7%; Dmax [2, 13]: 47.3%; DC50 [2, 15]: 150 nM; IC50 [3, 17]: 222 nM
6 | COc1cc(CCNCCCCCC#Cc2ccc3c(c2)CN(C2CCC(=O)NC2=O)C3=O)c(C)cc1Nc1ncc(Cl)c(Nc2ccccc2S(=O)(=O)C(C)C)n1 (stereo not shown) [compound 92] | – | – | – | – | – | – | – | Dmax [1]: 93%; DC50 [1]: 4 nM; IC50 ([3]; Homo sapiens, NCI-H3122, Table 3): 50 nM
7 | COc1cc(CCN(C)C(=O)CCCCCCCCNC(=O)COc2cccc3c2C(=O)N(C2CCC(=O)NC2=O)C3=O)c(C)cc1Nc1ncc(Cl)c(Nc2ccccc2S(=O)(=O)C(C)C)n1 (stereo not shown) [compound 7, N-(4-((5-chloro-4-((2-(isopropylsulfonyl)phenyl)amino)pyrimidin-2-yl)amino)-5-methoxy-2-methylphenethyl)-9-(2-((2-(2,6-dioxopiperidin-3-yl)-1,3-dioxoisoindolin-4-yl)oxy)acetamido)-N-methylnonanamide] | 50.8 | 91 | 63 | 15.7 | 47.8 | – | – | Dmax [2, 5]: 44.8%; DC50 [2, 7]: 36 nM
8 | CN[C@@H](C)C(=O)N[C@H](C(=O)N1Cc2cc(OCCCCCNCCc3cc(OC)c(Nc4ncc(Cl)c(Nc5ccccc5S(=O)(=O)C(C)C)n4)cc3C)ccc2C[C@H]1C(=O)N[C@H]1CCCc2ccccc21)C(C)(C)C [Compound 39] | 79.1 | 402 | 293 | 1480 | 89.2 | – | – | Dmax [2, 5]: 99.3%; DC50 [2, 7]: 184 nM; IC50 ([3]; Homo sapiens, NCI-H3122, Table 1, unheaded column beside IC50 (nM)): 414 nM
9 | COc1cc(CCN(C)C(=O)CCOCCOCCOCC#Cc2cccc3c2C(=O)N(C2CCC(=O)NC2=O)C3=O)c(C)cc1Nc1ncc(Cl)c(Nc2ccccc2P(C)(C)=O)n1 (stereo not shown) [Compound 63] | – | – | – | – | – | 3910 | 3910 | Dmax [2, 11]: 27.3%; Dmax [2, 13]: 27.3%; IC50 [3, 17]: > 10000 nM
10 | COc1cc(CCNCCCC(=O)N[C@H](C(=O)N2C[C@H](O)C[C@H]2C(=O)N[C@@H](C)c2ccc(-c3scnc3C)cc2)C(C)(C)C)c(C)cc1Nc1ncc(Cl)c(Nc2ccccc2S(=O)(=O)C(C)C)n1 [Compound 43] | 38.1 | 1230 | 1230 | 289 | 38.1 | – | – | –
11 | COc1cc(CCN(C)C(=O)CCCCCC#Cc2cccc3c2C(=O)N(C2CCC(=O)NC2=O)C3=O)c(C)cc1Nc1ncc(Cl)c(Nc2ccccc2P(C)(C)=O)n1 (stereo not shown) [Compound 62] | – | – | – | – | – | 4380 | 4380 | Dmax [2, 11]: 27.8%; Dmax [2, 13]: 27.8%; IC50 [3, 17]: > 10000 nM
12 | COc1cc(CCNCCOCCOCCC(=O)N[C@H](C(=O)N2C[C@H](O)CC2C(=O)N[C@@H](C)c2ccc(-c3scnc3C)cc2)C(C)(C)C)c(C)cc1Nc1ncc(Cl)c(Nc2ccccc2S(=O)(=O)C(C)C)n1 (stereo partly shown) [Compound 46] | 58 | 1390 | 801 | 316 | 51.3 | – | – | Dmax [2, 5]: 34.5%; DC50 [2, 7]: 206 nM
13 | COc1cc(CCNCCCCCC(=O)N[C@H](C(=O)N2C[C@H](O)C[C@H]2C(=O)N[C@@H](C)c2ccc(-c3scnc3C)cc2)C(C)(C)C)c(C)cc1Nc1ncc(Cl)c(Nc2ccccc2S(=O)(=O)C(C)C)n1 [Compound 44] | 53 | 1250 | 1250 | 252 | 53 | – | – | –
14 | COc1cc(CCN(C)C(=O)CCCNC(=O)COc2cccc3c2C(=O)N(C2CCC(=O)NC2=O)C3=O)c(C)cc1Nc1ncc(Cl)c(Nc2ccccc2P(C)(C)=O)n1 (stereo not shown) [Compound 57] | – | – | – | – | – | 9340 | 9340 | IC50 ([3]; Table 2): > 10000 nM
15 | COc1cc(CCN(C)C(=O)CCCCCCCCNc2cccc3c2C(=O)N(C2CCC(=O)NC2=O)C3=O)c(C)cc1Nc1ncc(Cl)c(Nc2ccccc2P(C)(C)=O)n1 (stereo not shown) [Compound 66] | – | – | – | – | – | 1730 | 1200 | Dmax [2, 11]: 23.6%; Dmax [2, 12]: 49.3%; Dmax [2, 13]: 36.5%; DC50 [2, 15]: 670 nM; IC50 [3, 17]: 1630 nM
16 | COc1cc(CCN(C)C(=O)CCCCCNc2cccc3c2C(=O)N(C2CCC(=O)NC2=O)C3=O)c(C)cc1Nc1ncc(Cl)c(Nc2ccccc2P(C)(C)=O)n1 (stereo not shown) [Compound 65] | – | – | – | – | – | 2560 | 2560 | Dmax [2, 11]: 26.2%; Dmax [2, 13]: 26.2%; IC50 [3, 17]: 1100 nM
17 | COc1cc(CCN(C)C(=O)CCCNC(=O)COc2cccc3c2C(=O)N(C2CCC(=O)NC2=O)C3=O)c(C)cc1Nc1ncc(Cl)c(Nc2ccccc2S(=O)(=O)C(C)C)n1 (stereo not shown) [compound 5, N-(4-((5-chloro-4-((2-(isopropylsulfonyl)phenyl)amino)pyrimidin-2-yl)amino)-5-methoxy-2-methylphenethyl)-4-(2-((2-(2,6-dioxopiperidin-3-yl)-1,3-dioxoisoindolin-4-yl)oxy)acetamido)-N-methylbutanamide] | 44.5 | 239 | – | 149 | 44.5 | – | – | –
